Where a name gives a salt, the structure may show the parent alone.

As usually defined, the melting point is the temperature of the solid-liquid transition. For orientation: Ki means the dissociation constant of the complex between target and ligand, obtained from inhibition or displacement. Higher therefore signals lower affinity.

System in the first series: not given
Test: not given
Details: not given
Take `O=C1OCC(c2ccc(F)c(F)c2)N1CCCCN1CCC2(CC1)c1ccccc1Sc1ccccc12` (centres unmarked) (as salt: HCl): the melting point fell in the range of 97 to 132 °C.
The same measure, in the same setting: to `O=C(NCCCN1CCC2(CC1)c1ccccc1Sc1ccccc12)N1C(=O)OC[C@@H]1c1ccc(F)c(F)c1` (as salt: HCl) belongs 140 to 176 °C; to `COCC1=C(C(=O)OC)C(c2ccc(F)c(F)c2)N(C(=O)NCCCN2CCC3(CC2)c2ccccc2Sc2ccccc23)C(=O)N1` (centres unmarked) (as salt: HCl), 140 to 170 °C.
Same read-out and setting: the figure for `O=C1OC[C@H](c2ccc(F)c(F)c2)N1CCCCCN1CCC2(CC1)c1ccccc1Sc1ccccc12` (as salt: HCl) [Example 19, 4-(S)-(3,4-Difluorophenyl)-3-[5-(spirothioxanthen-9,4′-piperidin-1′-yl)-pentyl]-oxazolidin-2-one] is 90 to 130 °C.
Same read-out and setting: the figure for `O=C1OC[C@H](c2ccc(F)c(F)c2)N1CCCCCCN1CCC2(CC1)c1ccccc1Sc1ccccc12` (as salt: HCl) [Example 20, 4-(S)-(3,4-Difluorophenyl)-3-[6-(spirothioxanthen-9,4′-piperidin-1′-yl)-hexyl]-oxazolidin-2-one] is 90 to 130 °C.
`O=C(NCCCN1CCC2(CC1)c1ccccc1[S+]([O-])c1ccccc12)N1C(=O)OC[C@@H]1c1ccc(F)c(F)c1` (as salt: HCl) [Example 26, 1′-{3-[(4S)-(3,4-Difluorophenyl)-2-oxooxazolidin-3-carbonylamino]propyl}-(10-oxo-spirothioxanthene-9,4′-piperidine)]: the melting point lay within 184 to 193 °C.
Same read-out and setting: to `COCC1=C(C(=O)OC)[C@H](c2ccc(F)c(F)c2)N(C(=O)NCCCN2CCC3(CC2)c2ccccc2[S+]([O-])c2ccccc23)C(=O)N1` (as salt: HCl) [Example 27, 1,2,3,6-tetrahydro-1-[(10-oxo-spirothioxanthene-9,4′-piperidin-1′-yl)propyl]aminocarbonyl-5-methoxycarbonyl-4-methoxymethyl-6(S)-(3,4-difluorophenyl)-2-oxopyrimidine] belongs 185 to 196 °C.
`O=C(NCCCN1CCC2(CC1)c1ccccc1S(=O)(=O)c1ccccc12)N1C(=O)OC[C@@H]1c1ccc(F)c(F)c1` (as salt: HCl) [Example 32, 1′-{3-[(4S)-(3,4-Difluorophenyl)-2-oxooxazolidin-3-carbonylamino]propyl}-(10,10-dioxo-spirothioxanthene-9,4′-piperidine)] yielded a melting point of 158 to 187 °C.
On the same count and under the same terms, to `COCC1=C(C(=O)OC)[C@H](c2ccc(F)c(F)c2)N(C(=O)NCCCN2CCC3(CC2)c2ccccc2S(=O)(=O)c2ccccc23)C(=O)N1` (as salt: HCl) [Example 33, 1,2,3,6-tetrahydro-1-[(10,10-dioxo-spirothioxanthene-9,4′-piperidin-1′-yl)propyl]aminocarbonyl-5-methoxycarbonyl-4-methoxymethyl-6(S)-(3,4-difluorophenyl)-2-oxopyrimidine] belongs 158 to 196 °C; to `COCC1=C(C(=O)OC)[C@H](c2ccc(F)c(F)c2)N(C(=O)NCCCN2CCC3(CC2)c2ccccc2-c2ncccc23)C(=O)N1` (as salt: hydrochloride) [Example 49], 157 to 180 °C.

Another series addresses T1, human alpha 1a adrenergic receptor (Homo sapiens, UniProt P35348).
T1 sequence (P35348 1-466): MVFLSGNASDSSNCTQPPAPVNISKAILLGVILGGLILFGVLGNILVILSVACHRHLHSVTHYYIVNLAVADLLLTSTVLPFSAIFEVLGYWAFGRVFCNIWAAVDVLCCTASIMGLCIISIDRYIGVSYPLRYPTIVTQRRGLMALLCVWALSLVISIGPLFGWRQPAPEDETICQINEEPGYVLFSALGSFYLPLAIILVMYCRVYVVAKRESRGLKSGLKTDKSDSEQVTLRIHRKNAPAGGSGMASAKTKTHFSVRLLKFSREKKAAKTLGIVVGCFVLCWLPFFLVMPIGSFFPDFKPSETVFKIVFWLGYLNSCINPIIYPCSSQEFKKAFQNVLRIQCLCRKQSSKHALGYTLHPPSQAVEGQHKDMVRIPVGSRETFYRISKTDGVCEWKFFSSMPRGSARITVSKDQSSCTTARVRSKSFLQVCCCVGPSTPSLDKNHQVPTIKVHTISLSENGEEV
Kind of series: Screening assay: alpha 1a adrenergic receptor binding ([125I]-HEAT competition). Particulars: membranes from stably transfected human alpha 1a cell line (ATCC CRL 11140), 100 pM [125I]-HEAT. On the procedure: Screening Assay: Alpha 1a Adrenergic Receptor Binding
Membranes prepared from the stably transfected human alpha 1a cell line (ATCC CRL 11140) were used to identify compounds that bind to the human alpha 1a adrenergic receptor. These competition binding reactions (total volume=200 μl) contained 50 mM Tris-HCl pH. 7.4, 5 mM EDTA, 150 mM NaCl, 100 pM [^125I]-HEAT, membranes prepared from the alpha 1a cell line and increasing amounts of unlabeled ligand. Reactions were incubated at room temperature for one hour with shaking. Reactions were filtered onto Whatman GF/C glass fiber filters with a Inotec 96 well cell harvester. Filters were washed three times with ice cold buffer and bound radioactivity was determined (Ki).
With `Cc1ccc(C2(c3ccc(C)cc3)NC(=O)N(CCCN3CCC4(CC3)c3ccccc3-c3ccccc34)C2=O)cc1` [Example 4, 1′-[3-(5,5-Bis-p-tolyl-2,4-dioxoimidazolidin-3-yl)propyl]spirofluorene-9,4′-piperidine], the Ki was less than 20 nM.
On the same count and under the same terms, to `O=C(NCCCN1CCC2(CC1)c1ccccc1-c1ccccc12)N1C(=O)OC[C@@H]1c1ccc(F)c(F)c1` [Example 6, 1′-{3-[(4S)-(3,4-Difluorophenyl)-2-oxooxazolidin-3-carbonylamino]propyl}spirofluorene-9,4′-piperidine] belongs less than 20 nM; to `COCC1=C(C(=O)OC)[C@H](c2ccc(F)c(F)c2)N(C(=O)NCCCN2CCC3(CC2)c2ccccc2-c2ccccc23)C(=O)N1` [Example 8, 1,2,3,6-tetrahydro-1-[(spirofluorene-9,4′-piperidin-1′-yl)propyl]aminocarbonyl-5-methoxycarbonyl-4-methoxymethyl-6(S)-(3,4-difluorophenyl)-2-oxopyrimidine], less than 20 nM; to `Cc1ccc(C2(c3ccc(C)cc3)NC(=O)N(CCCN3CCC4(CC3)c3ccccc3-c3ccc(Br)cc34)C2=O)cc1` [Example 10, 1′-[3-(5,5-Bis-p-tolyl-2,4-dioxoimidazolidin-3-yl)propyl]-2-bromospirofluorene-9,4′-piperidine], less than 20 nM.
In turn, `COCC1=C(C(=O)OC)[C@H](c2ccc(F)c(F)c2)N(C(=O)NCCCN2CCC3(CC2)c2ccccc2-c2ccc(F)cc23)C(=O)N1` [Example 14, 1,2,3,6-tetrahydro-1-[((2-fluorospirofluorene-9,4′-piperidin)-1′-yl)propyl]aminocarbonyl-5-methoxycarbonyl-4-methoxymethyl-6(S)-(3,4-difluorophenyl)-2-oxopyrimidine] displayed an inhibition constant Ki of less than 20 nM.
Molecule `O=C(NCCCN1CCC2(CC1)c1ccccc1[S+]([O-])c1ccccc12)N1C(=O)OC[C@@H]1c1ccc(F)c(F)c1` [Example 26, 1′-{3-[(4S)-(3,4-Difluorophenyl)-2-oxooxazolidin-3-carbonylamino]propyl}-(10-oxo-spirothioxanthene-9,4′-piperidine)] displayed a Ki of less than 20 nM.
`COCC1=C(C(=O)OC)[C@H](c2ccc(F)c(F)c2)N(C(=O)NCCCN2CCC3(CC2)c2ccccc2[S+]([O-])c2ccccc23)C(=O)N1` [Example 27, 1,2,3,6-tetrahydro-1-[(10-oxo-spirothioxanthene-9,4′-piperidin-1′-yl)propyl]aminocarbonyl-5-methoxycarbonyl-4-methoxymethyl-6(S)-(3,4-difluorophenyl)-2-oxopyrimidine]: the Ki is less than 20 nM.
The same measure, in the same setting: the figure for `O=C(NCCCN1CCC2(CC1)c1ccccc1S(=O)(=O)c1ccccc12)N1C(=O)OC[C@@H]1c1ccc(F)c(F)c1` [Example 32, 1′-{3-[(4S)-(3,4-Difluorophenyl)-2-oxooxazolidin-3-carbonylamino]propyl}-(10,10-dioxo-spirothioxanthene-9,4′-piperidine)] is less than 20 nM.
Same read-out and setting: the figure for `COCC1=C(C(=O)OC)[C@H](c2ccc(F)c(F)c2)N(C(=O)NCCCN2CCC3(CC2)c2ccccc2S(=O)(=O)c2ccccc23)C(=O)N1` [Example 33, 1,2,3,6-tetrahydro-1-[(10,10-dioxo-spirothioxanthene-9,4′-piperidin-1′-yl)propyl]aminocarbonyl-5-methoxycarbonyl-4-methoxymethyl-6(S)-(3,4-difluorophenyl)-2-oxopyrimidine] is less than 20 nM.
The same measure, in the same setting: the figure for `O=C(NCCCN1CCC2(CC1)c1ccccc1Oc1ccc(Cl)cc12)N1C(=O)OC[C@@H]1c1ccc(F)c(F)c1` [Example 40, 1′-{3-[(4S)-(3,4-Difluorophenyl)-2-oxooxazolidin-3-carbonylamino]propyl}-2-chlorospiroxanthene-9,4′-piperidine] is less than 20 nM.
The molecule `O=C(NCCCN1CCC2(CC1)c1cc(Cl)ccc1Oc1ccc(Cl)cc12)N1C(=O)OC[C@@H]1c1ccc(F)c(F)c1` [Example 42, 1′-{3-[(4S)-(3,4-Difluorophenyl)-2-oxooxazolidin-3-carbonylamino]propyl}-2,7-dichlorospiroxanthene-9,4′-piperidine] yielded a Ki of less than 20 nM.
The same measure, in the same setting: the figure for `O=C(NCCCN1CCC2(CC1)c1cc(F)ccc1Oc1ccc(F)cc12)N1C(=O)OC[C@@H]1c1ccc(F)c(F)c1` [Example 44, 1′-{3-[(4S)-(3,4-Difluorophenyl)-2-oxooxazolidin-3-carbonylamino]propyl}-2,7-difluorospiroxanthene-9,4′-piperidine] is less than 20 nM; for `COCC1=C(C(=O)OC)[C@H](c2ccc(F)c(F)c2)N(C(=O)NCCCN2CCC3(CC2)c2ccccc2-c2ncccc23)C(=O)N1` [Example 49] it is less than 20 nM; for `COCC1=C(C(=O)OC)[C@H](c2ccc(F)c(F)c2)N(C(=O)NCCCN2CCC3(CC2)c2ccccc2-c2cccnc23)C(=O)N1` [Example 53, 1,2,3,6-tetrahydro-1-[3-((spiro(9H-indeno[2,1-b]pyridine)-9,4′-piperidin)-1′-yl)propylaminocarbonyl]-5-methoxycarbonyl-4-methoxymethyl-6(S)-(3,4-difluorophenyl)-2-oxopyrimidine] it is less than 20 nM.
Same read-out and setting: to `O=C(NCCCN1CCC2(CC1)c1ccccc1CCc1ccccc12)N1C(=O)OC[C@@H]1c1ccc(F)c(F)c1` [Example 57, 1′-{3-[4(S)-(3,4-difluorophenyl)-2-oxooxazolidin-3-carbonylamino]-propyl}-(10,11-dihydrospiro-5H-dibenzo[a,d]cycloheptene)-5,4′-piperidine] belongs less than 20 nM.
`O=C1OC[C@H](c2ccc(F)c(F)c2)N1CCCCCN1CCC2(CC1)c1ccccc1CCc1ccccc12` [Example 58, 1′-{5-[4(S)-(3,4-difluorophenyl)-2-oxooxazolidin-3-yl]-pentyl}-(10,11-dihydrospiro-5H-dibenzo[a,d]cycloheptene)-5,4′-piperidine] gave a Ki of less than 20 nM.

The values are drawn from patent US6387893B1, “Spirotricyclic substituted azacycloalkane derivatives and uses thereof” (Merck & Co., Inc., priority 1999, dated 2002).
